Measured values as given in ChEMBL document CHEMBL2440100, “Therapeutic potential of the peptide leucine arginine as a new nonplant bowman-birk-like serine protease inhibitor” (J Med Chem, 2013).
Calls of active or inactive are those of the source. No cut-off for these calls is given here. Where a SMILES comes first, the peptide text is derived from it. Bridges are numbered along the chain shown (N, C = ends).

Assays:
[1] = species: Mus musculus; test: Antiasthmatic activity in OVA-immunized BALB/c mouse chronic asthma model assessed as reduction of IgE level in serum at 100 nM treated intranasally on days 15, 16, 22, and 23 at 30 mins before OVA challenge measured on day 71; format: functional, organism-based
[2] = Inhibition of bovine trypsin using benzoyl-L-arginine p-nitroanilide as substrate after 5 to 60 mins; set-up: species or system Bos taurus
[3] = species: Mus musculus; test: Antiasthmatic activity in OVA-immunized BALB/c mouse chronic asthma model assessed as reduction of 8-isoprostane level in serum at 10 uM treated intranasally by immunoassay; format: functional, organism-based
[4] = species: Mus musculus; test: Antiasthmatic activity in OVA-immunized BALB/c mouse acute asthma model assessed as reduction of IgE level in serum at 100 nM treated intranasally on days 15, 16, 22, and 23 at 30 mins before OVA challenge; format: functional, organism-based
[5] = species: Mus musculus; test: Antiasthmatic activity in OVA-immunized BALB/c mouse chronic asthma model assessed as reduction of decrease in smooth muscle area at 100 nM treated intranasally on days 15, 16, 22, and 23 at 30 mins before OVA challenge measured on day 71 by alpha-SMA-staining; format: functional, organism-based; settings: Muscle tissue
[6] = species: Mus musculus; test: Antiasthmatic activity in OVA-immunized BALB/c mouse acute asthma model assessed as decrease in number of eosinophils in BAL fluid at 100 nM treated intranasally on days 15, 16, 22, and 23 at 30 mins before OVA challenge; format: functional, organism-based
[7] = species: Mus musculus; test: Antiasthmatic activity in OVA-immunized BALB/c mouse chronic asthma model assessed as reduction of airway inflammation at 100 nM treated intranasally on days 15, 16, 22, and 23 at 30 mins before OVA challenge by hematoxylin and eosin staining measured on day 71; format: functional, organism-based
[8] = species: Mus musculus; test: Antiasthmatic activity in OVA-immunized BALB/c mouse acute asthma model assessed as reduction of airway inflammation at 100 nM treated intranasally on days 15, 16, 22, and 23 at 30 mins before OVA challenge by hematoxylin and eosin staining; format: functional, organism-based
[9] = species: Mus musculus; test: Antiasthmatic activity in OVA-immunized BALB/c mouse acute asthma model assessed as reduction of IgG2a level in serum at 100 nM treated intranasally on days 15, 16, 22, and 23 at 30 mins before OVA challenge; format: functional, organism-based
[10] = species: Mus musculus; test: Antiasthmatic activity in OVA-immunized BALB/c mouse acute asthma model assessed as reduction of methacholine-induced lung resistance at 100 nM treated intranasally on days 15, 16, 22, and 23 at 30 mins before OVA challenge; format: functional, organism-based
[11] = species: Mus musculus; test: Antiasthmatic activity in OVA-immunized BALB/c mouse chronic asthma model assessed as inhibition of airway remodeling at 100 nM treated intranasally on days 15, 16, 22, and 23 at 30 mins before OVA challenge measured on day 71; format: functional, organism-based
[12] = species: Mus musculus; test: Antiasthmatic activity in OVA-immunized BALB/c mouse chronic asthma model assessed as reduction of collagen and old fibrin at 100 nM treated intranasally on days 15, 16, 22, and 23 at 30 mins before OVA challenge measured on day 71 by martius scarlet blue-staining; format: functional, organism-based
[13] = species: Mus musculus; test: Antiasthmatic activity in OVA-immunized BALB/c mouse acute asthma model assessed as reduction of mucus production in PAS-stained lung section at 100 nM treated intranasally on days 15, 16, 22, and 23 at 30 mins before OVA challenge; format: functional, organism-based
[14] = species: Mus musculus; test: Antiasthmatic activity in OVA-immunized BALB/c mouse acute asthma model assessed as reduction of methacholine-induced airway hyperreactivity at 100 nM treated intranasally on days 15, 16, 22, and 23 at 30 mins before OVA challenge; format: functional, organism-based
[15] = species: Mus musculus; test: Antiasthmatic activity in OVA-immunized BALB/c mouse chronic asthma model assessed as inhibition of tryptase-like protease activity in BAL fluid using tosyl-gly […]-lys-pNA as substrate after 1 hr; format: functional, organism-based
[16] = species: Mus musculus; test: Antiasthmatic activity in OVA-immunized BALB/c mouse chronic asthma model assessed as reduction of mMCP-1 level in serum at 100 nM treated intranasally at 30 mins before OVA challenge measured after 30 mins by ELISA; format: functional, organism-based
[17] = test system: Splenocyte; test: Antiasthmatic activity in splenocytes isolated from 25 days OVA-immunized BALB/c mouse acute asthma model assessed as reduction of IL-13 and IL-5 production at 100 nM measured after 3 days re-stimulation by ELISA; format: functional, cell-based
[18] = species: Mus musculus; test: Antiasthmatic activity in OVA-immunized BALB/c mouse chronic asthma model assessed as reduction of area of proliferating smooth muscle cell at 100 nM treated intranasally on days 15, 16, 22, and 23 at 30 mins before OVA challenge measured on day 71 by PCNA+-staining; format: functional, organism-based
[19] = species: Mus musculus; test: Antiasthmatic activity in OVA-immunized BALB/c mouse chronic asthma model assessed as reduction of methacholine-induced airway hyperreactivity at 100 nM treated intranasally on days 15, 16, 22, and 23 at 30 mins before OVA challenge measured on day 71; format: functional, organism-based
[20] = species: Mus musculus; test: Antiasthmatic activity in OVA-immunized BALB/c mouse chronic asthma model assessed as reduction of total lung collagen level at 100 nM treated intranasally on days 15, 16, 22, and 23 at 30 mins before OVA challenge measured on day 71 by MSB-staining; format: functional, organism-based
[21] = species: Mus musculus; test: Antiasthmatic activity in lymphnode cells isolated from 25 days OVA-immunized BALB/c mouse acute asthma model assessed as reduction of IL-13 and IL-5 production at 100 nM measured after 3 days re-stimulation by ELISA; format: functional, cell-based
[22] = species: Mus musculus; test: Antiasthmatic activity in OVA-immunized BALB/c mouse chronic asthma model assessed as decrease in number of eosinophils in BAL fluid at 100 nM treated intranasally on days 15, 16, 22, and 23 at 30 mins before OVA challenge measured on day 71; format: functional, organism-based
[23] = species: Mus musculus; test: Antiasthmatic activity in OVA-immunized BALB/c mouse chronic asthma model assessed as inhibition of tryptase-like protease activity in BAL fluid using tosyl-gly […]-lys-pNA as substrate at 100 nM after 1 hr relative to control; format: functional
[24] = species: Mus musculus; test: Antiasthmatic activity in OVA-immunized BALB/c mouse chronic asthma model assessed as plasma histamine release at 0.1 uM treated intranasally after 5 mins by immunoassay; format: functional, organism-based
[25] = species: Mus musculus; test: Antiasthmatic activity in OVA-immunized BALB/c mouse chronic asthma model assessed as inhibition of airway inflammation at 100 nM treated intranasally on days 15, 16, 22, and 23 at 30 mins before OVA challenge measured on day 71; format: functional, organism-based
[26] = test system: Splenocyte; test: Antiasthmatic activity in splenocytes isolated from 25 days OVA-immunized BALB/c mouse acute asthma model assessed as reduction of IFN-gamma production at 100 nM measured after 3 days re-stimulation by ELISA; format: functional, cell-based
[27] = species: Mus musculus; test: Antiasthmatic activity in lymphnode cells isolated from 25 days OVA-immunized BALB/c mouse acute asthma model assessed as reduction of IFN-gamma production at 100 nM measured after 3 days re-stimulation by ELISA; format: functional, cell-based
[28] = species: Mus musculus; test: Antiasthmatic activity in OVA-immunized BALB/c mouse chronic asthma model assessed as plasma histamine release at 10 uM treated intranasally after 5 mins by immunoassay; format: functional, organism-based

| SMILES | Activity [1] | Ki [2] [µM] | Activity [3] | Activity [4] | Activity [5] | Activity [6] | Activity [7] | Activity [8] | Activity [9] | Activity [10] | Activity [11] | Activity [12] | Activity [13] | Activity [14] | inhibition [15] | Activity [16] | Activity [17] | Activity [18] | Activity [19] | Activity [20] | other results |
| --- | --- | --- | --- | --- | --- | --- | --- | --- | --- | --- | --- | --- | --- | --- | --- | --- | --- | --- | --- | --- | --- |
| CC[C@H](C)[C@@H]1NC(=O)[C@@H]2CCCN2C(=O)[C@@H]2CCCN2C(=O)[C@H]([C@@H](C)CC)NC(=O)[C@H](CO)NC(=O)[C@H](CCCCN)NC(=O)[C@H]([C@@H](C)O)NC(=O)[C@@H]2CSSC[C@H](NC1=O)C(=O)N[C@@H](Cc1ccccc1)C(=O)N1CCC[C@H]1C(=O)N[C@@H](CC(=O)O)C(=O)NCC(=O)N[C@@H](CCCNC(=N)N)C(=O)N2 | Active | 0.008 | inactive | Active | Active | Active | Active | Active | inactive | Active | Active | Active | Active | Active | Dose-dependent effect | Active | Active | Active | Active | Active | Activity [21]: Active; Activity [22]: Active; inhibition (INH) [23]: 60%; Activity [24]: inactive; Activity [25]: Active |
| CC(C)C[C@H](N)C(=O)N[C@H](C(=O)N[C@@H](CCCNC(=N)N)C(=O)NCC(=O)N[C@H]1CSSC[C@@H](C(=O)N[C@@H](Cc2ccccc2)C(=O)N[C@H](C(=O)N[C@@H](CCCNC(=N)N)C(=O)O)C(C)C)NC(=O)[C@@H]2CCCN2C(=O)[C@H](CCCCN)NC(=O)[C@@H]2CCCN2C(=O)[C@@H]2CCCN2C(=O)[C@H](Cc2ccc(O)cc2)NC(=O)[C@H](CO)NC(=O)[C@H](CCCCN)NC(=O)[C@H]([C@@H](C)O)NC(=O)[C@H](Cc2c[nH]c3ccccc23)NC1=O)C(C)C (H-LVRGCWTKSYPPKPCFVR-OH; disulfide 5-15) | Active | 0.11 | Active | Active | Active | Active | Active | Active | inactive | Active | Active | Active | Active | Active | Dose-dependent effect | Active | Active | Active | Active | Active | Activity [26]: Active; Activity [27]: inactive; Activity [28]: Active; Activity [21]: Active; Activity [22]: Active; inhibition (INH) [23]: 60%; Activity [24]: inactive; Activity [25]: Active |
